# Data: ChEMBL document CHEMBL2146471, “Derivatives of heteroarylsulfonamides, their preparation, and their application in human therapy: patent highlight” (ACS Med Chem Lett, 2012)
# Biological target: Potassium voltage-gated channel subfamily A member 5 (Homo sapiens) (UniProt P22460)
# Assay: Inhibition of Kv1.5 ion channel expressed in HEK293 cells at 10 uM by FLIPR assay
# Assay type: cell-based
# Potassium voltage-gated channel subfamily A member 5 (Homo sapiens), sequence (P22460 whole entry): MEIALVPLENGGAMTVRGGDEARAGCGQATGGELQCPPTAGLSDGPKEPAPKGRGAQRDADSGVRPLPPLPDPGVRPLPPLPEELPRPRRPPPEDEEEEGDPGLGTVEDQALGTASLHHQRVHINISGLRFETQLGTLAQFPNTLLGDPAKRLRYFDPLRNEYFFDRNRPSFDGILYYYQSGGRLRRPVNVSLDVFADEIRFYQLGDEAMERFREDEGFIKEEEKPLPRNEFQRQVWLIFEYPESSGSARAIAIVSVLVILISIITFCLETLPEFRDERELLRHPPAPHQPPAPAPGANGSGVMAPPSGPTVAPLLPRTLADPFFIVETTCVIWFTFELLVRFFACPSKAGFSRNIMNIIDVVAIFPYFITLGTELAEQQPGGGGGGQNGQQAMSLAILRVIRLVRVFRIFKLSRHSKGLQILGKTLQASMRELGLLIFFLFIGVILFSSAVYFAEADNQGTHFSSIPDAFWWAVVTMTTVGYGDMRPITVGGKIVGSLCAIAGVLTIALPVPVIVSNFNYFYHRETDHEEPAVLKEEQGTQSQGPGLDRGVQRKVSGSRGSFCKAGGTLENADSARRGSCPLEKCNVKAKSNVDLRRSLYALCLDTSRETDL
row,Compound,inhibition
1,O=C(c1ccccc1NS(=O)(=O)c1ccccn1)N1CCN(c2nc3ccc(Br)cc3s2)CC1,100%
2,O=C(c1ccc(NS(=O)(=O)c2ccccn2)cc1)N1CCN(c2nc3ccc(F)cc3s2)CC1,100%
3,O=C(c1cccc(NS(=O)(=O)c2ccccn2)c1)N1CCN(c2nc3ccc(Cl)cc3s2)CC1,75.1%

# More lines, now with the values ahead:
row,inhibition,Compound
1,76%,O=S(=O)(Nc1ccccc1OCC1CCN(c2nc3ccccc3s2)C1)c1ccccn1 (stereo not given)
2,100%,O=S(=O)(Nc1ccccc1OC1CCN(c2nc3ccc(Br)cc3s2)CC1)c1ccccn1
